Like-named read-outs stand apart in the source and are kept apart here.
Experiments:
[1] = tested on: E. coli; type: cell-based; conditions: 6-millimeter disc, 10 microliters, 24 hours
Method: (§1) A second sample of a dendrimer silver complex was tested against various concentrations of silver nitrate against both E. coli and Pseudomonas aerugentoas. The experiment was performed as follows: • 1. Prepare an inoculum of the test organisms by streaking the entire surface of agar plates, by the standard method for colony isolation, with ether E. coli or pseudomonas aerugentoas. The plates were incubated at 370 C for approximately 18 hours. • 2. Harvest all the growth on the test organism plates by flooding the plats with 9.0 ml of sterile distilled water per plate. Wash the harvested biomass by centrifugation for 1 hour at 3000 rpm, discarding the supernatant fluid, and resuspending in 9.0 ml of sterile distilled water. Resuspend harvested cell by vortex agitation for 1 minute. • 3. Inoculate test plates with 0.2 ml with the test organism prepare as described above. • 4. Place sterile 6-millimeter blank paper Discs on test plates and saturate with 10 microliters of the test substances. • 5. […]

[2] = tested on: Pseudomonas aerugentoas; test: Paper disc zone of inhibition test (Example Two); type: cell-based; conditions: 6-millimeter disc, 10 microliters, 24 hours
Method: as §1

O=[N+]([O-])[O-].[Ag+] [Silver Nitrate]
E. Coli (diameter of inhibitory zone) ([1]; 0.5% Silver Nitrate): 6 millimeters
E. Coli (diameter of inhibitory zone) ([1]; 1.0% Silver Nitrate): 6 millimeters
E. Coli (diameter of inhibitory zone) ([1]; 2.5% Silver Nitrate): 6 millimeters
E. Coli (diameter of inhibitory zone) ([1]; 5.0% Silver Nitrate): 6 millimeters
E. Coli (diameter of inhibitory zone) ([1]; 7.5% Silver Nitrate): 6 millimeters
E. Coli (diameter of inhibitory zone) ([1]; 10.0% Silver Nitrate): 6 millimeters
Pseudomonas (diameter of inhibitory zone) ([2]; 0.5% Silver Nitrate): 12 millimeters
Pseudomonas (diameter of inhibitory zone) ([2]; 1.0% Silver Nitrate): 9 millimeters
Pseudomonas (diameter of inhibitory zone) ([2]; 2.5% Silver Nitrate): 6 millimeters
Pseudomonas (diameter of inhibitory zone) ([2]; 5.0% Silver Nitrate): 6 millimeters
Pseudomonas (diameter of inhibitory zone) ([2]; 7.5% Silver Nitrate): 7 millimeters
Pseudomonas (diameter of inhibitory zone) ([2]; 10.0% Silver Nitrate): 11 millimeters

From US7507335B2, “Dendrimer fluid purification agent and article” (KWG Technology, priority 2003, dated 2009)
